Tests used:
[1] = acute, duration: 1 days, injection, intraperitoneal, M, Sprague-Dawley, anti-edema effect (reduction in paw edema)
[2] = chronic, duration: 2 years, oral, diet, F, Sprague-Dawley, blood: eosinophils (18 months)
[3] = short-term, duration: 14 days, oral, gavage, M, Crj:CD, red blood cell count
[4] = short-term, duration: 14 days, oral, gavage, M, Crj:CD, white blood cell count
[5] = subchronic, duration: 90 days, oral, diet, M, blood: leukocytes (3 months)
[6] = subchronic, duration: 90 days, oral, diet, M, blood: monocytes (1 month)
[7] = reproduction developmental, oral, gavage, M, C57BL/6, generation: F1, F1: spleen: mean percent splenic CD4+CD25+Foxp3+ T cells

O=C([O-])C(F)(F)C(F)(F)C(F)(F)C(F)(F)C(F)(F)C(F)(F)C(F)(F)F.[NH4+] [Ammonium perfluorooctanoate]
LOEL (Rattus norvegicus; [1]): 50 mg/kg-day
NOEL (Rattus norvegicus; [1]): 25 mg/kg-day
NOEL (Rattus norvegicus; acute, duration: 1 days, injection, intraperitoneal, M, Sprague-Dawley, paw thickness (0.5 hr) + paw thickness (1 hr) + paw thickness (time 0)): 150 mg/kg-day
LOEL (Rattus norvegicus; acute, duration: 1 days, injection, intraperitoneal, M, Sprague-Dawley, paw thickness (3 hrs, […] after PFOA) + paw thickness (4 hrs, 2.5 hrs after PFOA)): 150 mg/kg-day
LOEL (Rattus norvegicus; acute, duration: 1 days, injection, intraperitoneal, M, Sprague-Dawley, paw thickness ([…]) + paw thickness (2 hr) + paw thickness (3 hr) + paw thickness (4 hr)): 150 mg/kg-day
NOEL (Rattus norvegicus; acute, duration: 1 days, injection, intraperitoneal, M, Sprague-Dawley, paw thickness ([…], time of PFOA injection) + paw thickness (2 hrs, 0.5 hrs after PFOA)): 150 mg/kg-day
NOEL (Rattus norvegicus; acute, duration: 1 days, injection, intraperitoneal, M, Sprague-Dawley, paw thickness (edema): 0 hr, after carrageenan + paw thickness (edema): 0 hr, before carrageenan + paw thickness (edema): 0.5 hr + paw …): 100 mg/kg-day
LOEL (Rattus norvegicus; acute, duration: 1 days, injection, intraperitoneal, M, Sprague-Dawley, paw thickness (edema): […] + paw thickness (edema): 2 hr + paw thickness (edema): 2.5 hr + paw thickness (edema): 3 hr + paw thickness (…): 100 mg/kg-day
NOEL (Rattus norvegicus; acute, duration: 24 hours, injection, intraperitoneal, M, Fischer 344, blood serum: TNF-alpha levels): 150 mg/kg-day
NOEL (Rattus norvegicus; chronic, duration: 2 years, oral, diet, F, Sprague-Dawley, blood: eosinophils (12 months) + blood: eosinophils (24 months) + blood: eosinophils (3 months) + blood: eosinophils (6 months) + blood: …): 23.4 mg/kg-day
LOEL (Rattus norvegicus; [2]): 23.4 mg/kg-day
NOEL (Rattus norvegicus; [2]): 2.34 mg/kg-day
LOEL (Rattus norvegicus; chronic, duration: 2 years, oral, diet, F, Sprague-Dawley, blood: lymphocytes (18 months) + blood: neutrophils (18 months) + spleen: spleen: absolute weight (2 years) + spleen: spleen: relative …): 2.34 mg/kg-day
NOEL (Rattus norvegicus; chronic, duration: 2 years, oral, diet, M, Sprague-Dawley, blood: eosinophils (12 months) + blood: eosinophils (18 months) + blood: eosinophils (24 months) + blood: eosinophils (3 months) + blood: …): 23.4 mg/kg-day
LOEL (Rattus norvegicus; chronic, duration: 2 years, oral, diet, M, Sprague-Dawley, blood: leukocyte count (12 months) + blood: leukocyte count (3 months) + blood: leukocyte count (6 months) + blood: lymphocytes (18 months…): 2.34 mg/kg-day
NOEL (Rattus norvegicus; short-term, duration: 14 days, oral, gavage, M, Crj:CD, blood: NKR-P1A+ + CD3+ + CD4+ + CD45RA+ + CD8a+ + lymphocyte + monocyte + NKR-P1A+ + spleen: spleen: absolute weight + spleen: spleen: …): 50 mg/kg-day
LOEL (Rattus norvegicus; [3]): 50 mg/kg-day
NOEL (Rattus norvegicus; [3]): 5 mg/kg-day
LOEL (Rattus norvegicus; [4]): 5 mg/kg-day
NOEL (Rattus norvegicus; [4]): 0.5 mg/kg-day
NOEL (Rattus norvegicus; short-term, duration: 24 days, oral, gavage, M, Crl:CD(SD) BR, IgM antibody titer (SRBC) + mean serum corticosterone + spleen: incidence of spleen hematopoiesis + spleen: spleen: absolute weight + spleen…): 30 mg/kg-day
LOEL (Rattus norvegicus; short-term, duration: 24 days, oral, gavage, M, Crl:CD(SD) BR, thymus: thymus: relative weight): 30 mg/kg-day
NOEL (Rattus norvegicus; short-term, duration: 28 days, oral, gavage, F, Sprague-Dawley, basophils + eosinophils + lymphocytes + monocytes + neutrophils + spleen: spleen: absolute weight + spleen: spleen: relative weight + thymus…): 30 mg/kg-day
NOEL (Rattus norvegicus; short-term, duration: 28 days, oral, gavage, F, Sprague-Dawley, basophils + eosinophils + lymphocytes + monocytes + spleen: spleen: absolute weight + spleen: spleen: relative weight + thymus: thymus: …): 30 mg/kg-day
LOEL (Rattus norvegicus; short-term, duration: 28 days, oral, gavage, F, Sprague-Dawley, neutrophils): 30 mg/kg-day
NOEL (Rattus norvegicus; short-term, duration: 28 days, oral, gavage, M, Sprague-Dawley, basophils + eosinophils + lymphocytes + monocytes + neutrophils + spleen: spleen: absolute weight + spleen: spleen: relative weight + thymus…): 30 mg/kg-day
NOEL (Rattus norvegicus; short-term, duration: 28 days, oral, gavage, M, Sprague-Dawley, basophils + eosinophils + lymphocytes + neutrophils + spleen: spleen: absolute weight + spleen: spleen: relative weight + thymus: thymus: …): 30 mg/kg-day
LOEL (Rattus norvegicus; short-term, duration: 28 days, oral, gavage, M, Sprague-Dawley, monocytes + thymus: thymus: absolute weight): 30 mg/kg-day
NOEL (Rattus norvegicus; short-term, duration: 29 days, oral, gavage, M, Crl:CD(SD) BR, IgM antibody titer (SRBC) + mean serum corticosterone + spleen: incidence of spleen hematopoiesis + spleen: spleen: relative weight + spleen…): 30 mg/kg-day
NOEL (Rattus norvegicus; subchronic, duration: 90 days, oral, diet, F, blood: basophils (1 month) + blood: basophils (3 months) + blood: eosinophils (1 month) + blood: eosinophils (3 months) + blood: leukocytes…): 96 mg/kg-day
NOEL (Rattus norvegicus; subchronic, duration: 90 days, oral, diet, M, blood: basophils (1 month) + blood: basophils (3 months) + blood: eosinophils (1 month) + blood: eosinophils (3 months) + blood: leukocytes…): 96 mg/kg-day
LOEL (Rattus norvegicus; [5]): 28.8 mg/kg-day
NOEL (Rattus norvegicus; [5]): 9.6 mg/kg-day
LOEL (Rattus norvegicus; [6]): 2.88 mg/kg-day
NOEL (Rattus norvegicus; [6]): 0.96 mg/kg-day
LOEL (Mus musculus; acute, duration: 1 days, injection, intraperitoneal, serum histamine content): 1 mg/kg-day
NOEL (Mus musculus; developmental, duration: 9 days, oral, drinking water, F, C57BL/6, generation: F1, F1: IgM antibody titer (SRBC) + F1: spleen: spleen: relative weight + F1: thymus: thymus: relative weight): 6.7 mg/L
NOEL (Mus musculus; developmental, duration: 16 days, oral, gavage, F, CD1, generation: F1, F1: spleen: spleen: relative weight (ovx)): 5 mg/kg-day
NOEL (Mus musculus; reproduction developmental, oral, diet, M/F, BALB/c, generation: F1, F1: airway MCh sensitivity + F1: airway resistance (at 25 mg/mL methacholine) + F1: lung: BALF inflammatory cell counts: eosinophils + F1: …): 4 ppm
LOEL (Mus musculus; reproduction developmental, oral, diet, M/F, BALB/c, generation: F1, F1: airway MCh sensitivity + F1: airway resistance (at 25 mg/mL methacholine) + F1: lung: BALF inflammatory cell counts: macrophages + F1: …): 4 ppm
NOEL (Mus musculus; reproduction developmental, oral, gavage, F, C57BL/6, generation: F1, F1: mean serum anti-MBP): 2 mg/kg-day
NOEL (Mus musculus; reproduction developmental, oral, gavage, F, C57BL/6, generation: F1, F1: mean serum anti-dsDNA + F1: spleen: mean percent splenic CD4+CD25+Foxp3+ T cells): 0.2 mg/kg-day
LOEL (Mus musculus; reproduction developmental, oral, gavage, F, C57BL/6, generation: F1, F1: mean serum anti-ssDNA + F1: spleen (CD4+CD25+): IL-10 levels): 0.02 mg/kg-day
LOEL (Mus musculus; reproduction developmental, oral, gavage, F, C57BL/6, generation: F1, F1: spleen: mean percent splenic CD4+CD25+Foxp3+ T cells): 2 mg/kg-day
NOEL (Mus musculus; reproduction developmental, oral, gavage, M, C57BL/6, generation: F1, F1: mean serum anti-dsDNA + F1: mean serum anti-MBP + F1: mean serum anti-ssDNA): 2 mg/kg-day
LOEL (Mus musculus; reproduction developmental, oral, gavage, M, C57BL/6, generation: F1, F1: spleen (CD4+CD25+): IL-10 levels): 0.02 mg/kg-day
LOEL (Mus musculus; [7]): 2 mg/kg-day
NOEL (Mus musculus; [7]): 0.2 mg/kg-day
NOEL (Mus musculus; short-term, duration: 3 weeks, oral, diet, M, C57BL/6, fold changes of proinflammatory cytokine genes in liver: IL-1b gene (relative to control) + fold changes of proinflammatory cytokine genes …): 5 mg/kg-day
LOEL (Mus musculus; short-term, duration: 3 weeks, oral, diet, M, C57BL/6, fold changes of proinflammatory cytokine genes in liver: IP-10 gene (relative to control) + fold changes of proinflammatory cytokine genes …): 5 mg/kg-day
NOEL (Mus musculus; short-term, duration: 3 weeks, oral, gavage, F, BALB/c, IgM antibody level (TNP 1:50)): 20 mg/kg-day

Source: EPA's ToxValDB 9.5
